Laboratory results from PMC7545187, “Endocrine disruption of vitamin D activity by perfluoro-octanoic acid (PFOA)” (Scientific Reports, 2020).

Target: T1, Vitamin D receptor (VDR) (Homo sapiens, UniProt P11473)
T1 sequence (P11473 1-427): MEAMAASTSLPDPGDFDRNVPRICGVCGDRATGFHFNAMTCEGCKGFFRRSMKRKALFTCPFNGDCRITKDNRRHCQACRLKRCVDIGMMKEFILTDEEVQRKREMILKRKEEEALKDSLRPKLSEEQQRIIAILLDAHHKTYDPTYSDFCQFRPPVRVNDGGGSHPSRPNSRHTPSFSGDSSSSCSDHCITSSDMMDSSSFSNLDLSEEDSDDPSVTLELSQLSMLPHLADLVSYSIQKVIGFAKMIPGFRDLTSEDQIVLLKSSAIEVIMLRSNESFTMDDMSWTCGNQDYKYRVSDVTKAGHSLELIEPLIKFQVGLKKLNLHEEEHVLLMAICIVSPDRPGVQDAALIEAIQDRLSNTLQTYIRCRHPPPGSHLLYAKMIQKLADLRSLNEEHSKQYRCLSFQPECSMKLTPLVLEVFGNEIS
Assay: SPR competition: PFOA ([…]) with […](OH)D over immobilized VDR; […] decrease, no Kd for PFOA
Type: binding

## O=C(O)C(F)(F)C(F)(F)C(F)(F)C(F)(F)C(F)(F)C(F)(F)C(F)(F)F [PFOA, perfluorooctanoic acid]
  % decrease: 10 % decrease
